Experimental data from PubChem BioAssay (NCI).
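Test compounds were applied to cells in 96-well plates for 48 hours at 5 doses. GI50 marks 50% less growth. TGI: total growth inhibition.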

Experiments:
Test in all cases: growth of human tumour cells (NCI), 48 h
OVCAR-3 ovarian = test system: OVCAR-3 ovarian
HL-60(TB) leukemia = test system: HL-60(TB) leukemia
NCI-H23 lung = test system: NCI-H23 lung
HCC-2998 colon = test system: HCC-2998 colon
KM12 colon = test system: KM12 colon
DMS 114 small cell lung = test system: DMS 114 small cell lung
LOX IMVI melanoma = test system: LOX IMVI melanoma
SR leukemia = test system: SR leukemia
SNB-78 CNS = test system: SNB-78 CNS
NCI-H522 lung = test system: NCI-H522 lung
UACC-257 melanoma = test system: UACC-257 melanoma
LXFL 529 NSCLC = test system: LXFL 529 NSCLC
OVCAR-4 ovarian = test system: OVCAR-4 ovarian
CAKI-1 renal = test system: CAKI-1 renal
OVCAR-8 ovarian = test system: OVCAR-8 ovarian
OVCAR-5 ovarian = test system: OVCAR-5 ovarian
UO-31 renal = test system: UO-31 renal
HOP-62 NSCLC = test system: HOP-62 NSCLC
HCT-116 colon = test system: HCT-116 colon
A549 NSCLC = test system: A549 NSCLC
DMS 273 small cell lung = test system: DMS 273 small cell lung
HT29 colon = test system: HT29 colon
SN12C renal = test system: SN12C renal
SF-539 CNS = test system: SF-539 CNS
SW-620 colon = test system: SW-620 colon
HOP-92 NSCLC = test system: HOP-92 NSCLC
M14 melanoma = test system: M14 melanoma
786-0 renal = test system: 786-0 renal
NCI-H460 lung = test system: NCI-H460 lung
COLO 205 colon = test system: COLO 205 colon
SK-MEL-2 melanoma = test system: SK-MEL-2 melanoma
U251 CNS = test system: U251 CNS
SF-268 CNS = test system: SF-268 CNS
SNB-19 CNS = test system: SNB-19 CNS
KM20L2 colon = test system: KM20L2 colon
SNB-75 CNS = test system: SNB-75 CNS
DLD-1 colon = test system: DLD-1 colon
SF-295 CNS = test system: SF-295 CNS
IGROV1 ovarian = test system: IGROV1 ovarian
RXF 393 renal = test system: RXF 393 renal
M19-MEL melanoma = test system: M19-MEL melanoma
MALME-3M melanoma = test system: MALME-3M melanoma
NCI-H226 lung = test system: NCI-H226 lung
CCRF-CEM leukemia = test system: CCRF-CEM leukemia
MOLT-4 leukemia = test system: MOLT-4 leukemia
K-562 leukemia = test system: K-562 leukemia
A498 renal = test system: A498 renal
HOP-18 NSCLC = test system: HOP-18 NSCLC
TK-10 renal = test system: TK-10 renal
EKVX NSCLC = test system: EKVX NSCLC
RPMI-8226 leukemia = test system: RPMI-8226 leukemia
SK-MEL-28 melanoma = test system: SK-MEL-28 melanoma
SK-OV-3 ovarian = test system: SK-OV-3 ovarian
SK-MEL-5 melanoma = test system: SK-MEL-5 melanoma
HCT-15 colon = test system: HCT-15 colon
PC-3 prostate = test system: PC-3 prostate
ACHN renal = test system: ACHN renal
UACC-62 melanoma = test system: UACC-62 melanoma
DU-145 prostate = test system: DU-145 prostate
XF 498 CNS = test system: XF 498 CNS

SMILES: O/N=C(\c1ccccc1)N1CCCCC1
- TGI (OVCAR-3 ovarian): > 100 µM
- TGI (HL-60(TB) leukemia): > 100 µM
- TGI (NCI-H23 lung): > 100 µM
- TGI (HCC-2998 colon): > 100 µM
- TGI (KM12 colon): > 100 µM
- TGI (DMS 114 small cell lung): > 100 µM
- TGI (LOX IMVI melanoma): > 100 µM
- TGI (SR leukemia): > 100 µM
- TGI (SNB-78 CNS): > 100 µM
- TGI (NCI-H522 lung): > 100 µM
- TGI (UACC-257 melanoma): > 100 µM
- TGI (LXFL 529 NSCLC): > 100 µM
- TGI (OVCAR-4 ovarian): > 100 µM
- TGI (CAKI-1 renal): > 100 µM
- TGI (OVCAR-8 ovarian): > 100 µM
- TGI (OVCAR-5 ovarian): > 100 µM
- TGI (UO-31 renal): > 100 µM
- TGI (HOP-62 NSCLC): > 100 µM
- TGI (HCT-116 colon): > 100 µM
- TGI (A549 NSCLC): > 100 µM
- TGI (DMS 273 small cell lung): > 100 µM
- TGI (HT29 colon): > 100 µM
- TGI (SN12C renal): > 100 µM
- TGI (SF-539 CNS): > 100 µM
- TGI (SW-620 colon): > 100 µM
- TGI (HOP-92 NSCLC): > 100 µM
- TGI (M14 melanoma): > 100 µM
- TGI (786-0 renal): > 100 µM
- TGI (NCI-H460 lung): > 100 µM
- TGI (COLO 205 colon): > 100 µM
- TGI (SK-MEL-2 melanoma): > 100 µM
- TGI (U251 CNS): > 100 µM
- TGI (SF-268 CNS): > 100 µM
- TGI (SNB-19 CNS): > 100 µM
- TGI (KM20L2 colon): > 100 µM
- TGI (SNB-75 CNS): > 100 µM
- TGI (DLD-1 colon): > 100 µM
- TGI (SF-295 CNS): > 100 µM

SMILES: COC1CC(C)C(OC)C2=CC(=O)C=C(NC(=O)/C(C)=C/C=C\C(C)C(OC(N)=O)/C(C)=C\C(C)C1OC)C2=O (stereo not drawn)
- TGI (OVCAR-3 ovarian): 1.48 µM
- TGI (HL-60(TB) leukemia): 1.13 µM
- TGI (NCI-H23 lung): 13.8 µM
- TGI (HCC-2998 colon): 2.11 µM
- TGI (IGROV1 ovarian): 17.8 µM
- TGI (KM12 colon): 1.43 µM
- TGI (DMS 114 small cell lung): 17.8 µM
- TGI (RXF 393 renal): 1.68 µM
- TGI (LOX IMVI melanoma): 3.66 µM
- TGI (M19-MEL melanoma): 6.62 µM
- TGI (SR leukemia): 0.729 µM
- TGI (MALME-3M melanoma): 12 µM
- TGI (NCI-H226 lung): 22.4 µM
- TGI (SNB-78 CNS): 13.6 µM
- GI50 (NCI-H522 lung): 0.0592 µM
- TGI (NCI-H522 lung): 0.728 µM
- TGI (UACC-257 melanoma): 1.8 µM
- GI50 (CCRF-CEM leukemia): 0.0706 µM
- TGI (CCRF-CEM leukemia): 1.05 µM
- TGI (LXFL 529 NSCLC): 1.8 µM
- TGI (MOLT-4 leukemia): 1.04 µM
- GI50 (K-562 leukemia): 0.047 µM
- TGI (K-562 leukemia): 1.19 µM
- TGI (A498 renal): 24.2 µM
- TGI (OVCAR-4 ovarian): 2.48 µM
- TGI (CAKI-1 renal): 6.6 µM
- TGI (HOP-18 NSCLC): 15.7 µM
- TGI (OVCAR-8 ovarian): 18.3 µM
- TGI (OVCAR-5 ovarian): 17.8 µM
- TGI (UO-31 renal): 10.8 µM
- TGI (TK-10 renal): 9.81 µM
- TGI (HOP-62 NSCLC): 10.5 µM
- TGI (HCT-116 colon): 1.51 µM
- TGI (EKVX NSCLC): 23.1 µM
- TGI (RPMI-8226 leukemia): 4.39 µM
- TGI (SK-MEL-28 melanoma): 1.05 µM
- TGI (SK-OV-3 ovarian): 2.81 µM
- TGI (SK-MEL-5 melanoma): 15 µM
- TGI (HCT-15 colon): 3.31 µM
- TGI (A549 NSCLC): 31.4 µM
- TGI (SN12C renal): 5.48 µM
- TGI (SF-539 CNS): 1.04 µM
- TGI (SW-620 colon): 1.05 µM
- TGI (PC-3 prostate): 23.6 µM
- TGI (HOP-92 NSCLC): 10.9 µM
- TGI (M14 melanoma): 12.2 µM
- TGI (ACHN renal): 3.97 µM
- TGI (UACC-62 melanoma): 14.8 µM
- TGI (786-0 renal): 2.87 µM
- TGI (NCI-H460 lung): 8.37 µM
- TGI (COLO 205 colon): 3.19 µM
- TGI (DU-145 prostate): 15.9 µM
- TGI (SK-MEL-2 melanoma): 21.5 µM
- TGI (U251 CNS): 11 µM
- TGI (SF-268 CNS): 6.98 µM
- TGI (XF 498 CNS): 3.13 µM
- TGI (SNB-19 CNS): 18.1 µM
- TGI (SNB-75 CNS): 16.1 µM
- TGI (DLD-1 colon): 2.58 µM
- TGI (SF-295 CNS): 13.4 µM
